# Results taken from US20080261314A1, “FLUORESCENT PROBE FOR ZINC” (DAIICHI PURE CHEMICALS CO., LTD., priority 2001, published 2008).
# How the values were obtained:
# Type in all cases: physicochemical
# [1] = Ratio measurement of fluorescence intensities at two excitation wavelengths on addition of zinc ions; settings: excitation 335 nm and 354 nm, fluorescence 530 nm; 20 μM compound, ZnSO4 up to 20 μM, HEPES pH 7.4
# Description: (§1) To a 20 μM solution of Compound (11) in 100 mM HEPES buffer (pH 7.4), ZnSO4 was added up to 20 μM. Change of the ratio of fluorescence intensities at excitation wavelengths at 335 nm and 354 nm with the fluorescence wavelengths fixed at 530 nm are shown (FIG. 2 (A)). To a 20 μM solution of Compound (11) in 100 mM HEPES buffer (pH 7.4), sodium ions, calcium ions, potassium ions, or magnesium ions were added up to 400 μM. Changes of the ratio of fluorescence intensities at excitation wavelengths at 335 nm and 354 nm with the fluorescence wavelengths fixed at 530 nm are shown (FIG. 2 (B)).
# (§2) Studies of fluorescence characteristics and the ratio measurements of Compound (14) and (15) were conducted in the same manners as those described in Example 2 and Example 3. Fluorescent characteristics of Compound (14) and (15) before and after addition of zinc ions (20 μM ZnSO4) are shown in the following Table 2.
# [2] = Spectrum measurement (UV, excitation and fluorescence spectra) on addition of ZnSO4
# Description: To a 15 μM solution of Compound (14) in 100 mM HEPES buffer (pH 7.4), ZnSO4 was added up to 15 μM. Spectra of the solution were measured under the measurement condition described in Example 2. The same spectral measurement was also conducted for Compound (11) as a reference. In FIG. 3, a) UV spectrum change of Compound (14), b) excitation spectra of Compound (14) with fluorescence wavelengths fixed at 495 nm, c) UV spectrum change of Compound (11), and d) excitation spectra of Compound (11) with fluorescence wavelengths fixed at 530 nm are shown. Further, to a 10 μM solution of Compound (15) in 100 mM HEPES buffer (pH 7.4), ZnSO4 was added up to 200 μM. Spectra were measured under the condition described in Example 2.
# [3] = Fluorescence characteristics (excitation and emission maxima) before and after addition of zinc ions
# Description: Fluorescence characteristics of Compound (11) were studied. Compound (11) was dissolved in 100 mM HEPES buffer (pH 7.4, containing 0.4% DMSO as co-solvent) up to 20 μM and measured excitation spectra.
# Hitachi F-4500 fluorescence measurement apparatus
# Scanning rate: 240 nm/min
# Photomultiplier voltage: 950 V
# Measurement temperature: 25° C.
# as §2
# [4] = Ratio measurement on addition of ions other than zinc ion (selectivity)
# Description: as §1, §2
# [5] = 20 μM compound, 20 μM ZnSO4, 100 mM HEPES buffer pH 7.4, 25° C.
# [6] = 20 μM compound, 100 mM HEPES buffer pH 7.4, 0.4% DMSO, 25° C.
structure (smiles),measurement,setting,value
COc1cc2cc(-c3ccc(C(=O)O)cc3)oc2cc1NCCN(Cc1ccccn1)Cc1ccccn1 [Compound (11)],Change of the ratio of fluorescence intensities on addition of zinc ions,[1],changed concentration dependent manner of zinc ions
same,Change of absorbance at 335 nm on addition of zinc ions,"[2]; 15 μM compound, ZnSO4 up to 15 μM, HEPES pH 7.4",increases
same,Change of absorbance at the long-wavelength maximum on addition of zinc ions,"[2]; 365 nm for Compound (14), 354 nm for Compound (11), 15 μM compound, ZnSO4 up to 15 μM",decreases
same,Change of fluorescence excited at the long-wavelength maximum on addition of zinc ions,"[2]; excited at 365 nm (Compound (14), emission 495 nm) or 354 nm (Compound (11), emission 530 nm)",decreases
same,"Em(nm), after addition of Zn2+",[3]; [5],528 nm
same,"Ex(nm), after addition of Zn2+",[3]; [5],335 nm
same,"Em(nm), before addition of Zn2+",[3]; [6],532 nm
same,"Ex(nm), before addition of Zn2+",[3]; [6],354 nm
same,Wavelength shift of the peak of the excitation spectrum on coordination to a zinc ion,"[3]; blue shift, depending on concentration of zinc ions",about 20 nm
same,"Change of the ratio of fluorescence intensities on addition of sodium, calcium, potassium or magnesium ions","[4]; ions added up to 400 μM, 20 μM compound, 100 mM HEPES pH 7.4",no change of the ratio was observed
same,Selectivity to zinc ions,"[4]; versus sodium, calcium, potassium, magnesium ions",high selectivity to zinc ions
